From publication PMC8774648, “Effects of Baicalein and Chrysin on the Structure and Functional Properties of β-Lactoglobulin” (Foods, 2022)
“And” between values parts separate entries of the source, which are not always exact repeats. Identical values can stand only once. Marks after values point to notes of the source that are not given here.

Tests used:
β-lactoglobulin (BLG) [1] = molecular target: T1, β-lactoglobulin (BLG) (Bos taurus, UniProt P02754); assay: Intrinsic fluorescence quenching of BLG by Bai/Chr (Stern–Volmer and double logarithmic equations); type: binding; details: for Kd: Ka (binding constant); for Kd / Ksv (Stern–Volmer quenching constant): pH 6.8
T1 construct: purchased Sigma–Aldrich Co. (St. Louis, MO, USA)
T1 sequence (P02754 17-178): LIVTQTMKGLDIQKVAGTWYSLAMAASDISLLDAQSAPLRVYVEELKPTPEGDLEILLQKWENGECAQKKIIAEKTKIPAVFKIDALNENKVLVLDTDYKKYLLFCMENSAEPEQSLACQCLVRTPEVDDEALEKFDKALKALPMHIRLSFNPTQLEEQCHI
Description: (§1) Intrinsic fluorescence spectroscopic test was measured on a F–7000 spectrophotometer (Hitachi, Japan) equipped with temperature controller according to the method described in the previous study. Briefly, 3 mL solution of BLG (20.0 µM) was titrated by continuously adding different amounts of Bai or Chr (0–20.0 µM). The fluorescence spectra were recorded at different temperatures (298 K, 304 K, and 310 K) with the excitation wavelength of 280 nm and the excitation and emission slit set at 2.5 nm. Moreover, synchronous fluorescence spectra were conducted by setting the wavelength intervals (λem–λex) at 15 nm and 60 nm, respectively. The 3D fluorescence spectra (molar ratios of BLG to Bai/Chr were 1:0 and 1:1) were recorded at excitation and emission wavelength range of 200−600 nm. All the fluorescence values were corrected to eliminate the internal filtering effect according to the previous method, and were used to evaluate the quenching mechanism of Bai/Chr binding to BLG by using the following equation [21]:(1) F0/F=1+Kqτ0[Q]=1+KSV[Q] where F and F0 are the fluorescence intensities of fluorophore with and without quencher; Ksv denotes the Stern–Volmer quenching constant; Kq is the quenching rate constant (Kq = Ksv/τ0), and τ0 is the average lifetime of the biomolecule in the absence of a quencher (τ0 = 10^−8 s); [Q] represents the experimental concentration of Bai/Chr.
For static fluorescence quenching mechanism, the binding constant (Ka) and the number of binding sites (n) could be determined by the following equation [22]:(2) logF0−F/F=nlogKa−nlog1/[Qt]−(F0−F)[Pt]/F0 where [Qt] and [Pt] are the concentrations of Bai/Chr and BLG, respectively.

β-lactoglobulin (BLG) [2] = molecular target: T1, β-lactoglobulin (BLG); assay: Emulsifying ability and emulsifying stability of BLG
Description: Emulsifying ability (EA) and emulsifying stability (ES) were investigated by the method of Xiong et al. with slight modification. BLG solution (1 mg mL^−1) was added to Bai/Chr to form the solutions with different ratios of BLG to Bai/Chr (40:1, 30:1, 20:1, 10:1), and then soybean oil was added to form BLG solution containing 10% (v/v) oil. The emulsion was fully dispersed for 2 min at a rate of 7000 r min^−1 and repeated for three times. At 0 and 10 min, 30 µL of emulsion was extracted from the bottom of the sample and immediately added to 3 mL of 0.1% SDS solution. The absorbance of the sample was measured at 500 nm and recorded as A0 and A10, respectively. The EA (m^2 g^−1) and ES (min) were calculated according to the following equations:(11) EA (m^2 g^−1)=2×2.303/c×Φ×L×10^4×A0×D (12) ES (min)=A0/A0−A10×10 where c is the weight of the BLG per unit volume (g mL^−1), Φ is the volume fraction of the oil phase, L is the length of light path, and D is the dilution factor, D = 100.

β-lactoglobulin (BLG) [3] = molecular target: T1, β-lactoglobulin (BLG); assay: Thermodynamic parameters of Bai/Chr–BLG binding (Van't Hoff equation)
Description: In order to determine the primary forces between BLG and Bai/Chr, thermodynamic parameters were calculated using the following equations [23]:(3) logKa=−ΔH°/2.303RT+ΔS°/2.303R (4) ΔG°=ΔH°−TΔS° where R and T represent gas constant (8.314 J mol^−1 K^−1) and temperature (298, 304, and 310 K), respectively. Enthalpy change (ΔH°) and entropy change (ΔS°) of interaction between ligands and biomolecules are the main criteria for evaluating acting force, and free energy (ΔG°) is the main criteria for estimating the spontaneity of interaction.

β-lactoglobulin (BLG) [4] = molecular target: T1, β-lactoglobulin (BLG); assay: CD spectra, secondary structure contents of BLG
Description: The CD spectra in the range of 200–250 nm were obtained from a CD spectrometer (MOS 450, Bio–Logic, Claix, France) equipped with 1.0 mm path length cuvette under the constant nitrogen flush. The solutions were prepared with molar ratios of Bai or Chr to BLG of 0:1, 1:1, and 2:1, respectively. The contents of secondary structure of BLG were determined based on our previously reported study.

β-lactoglobulin (BLG) [5] = molecular target: T1, β-lactoglobulin (BLG); assay: Protein surface hydrophobicity (PSH) of BLG with ANS probe
Description: PSH of BLG in the presence or absence of Bai or Chr was determined using ANS as a fluorescent probe. In the BLG solution (20.0 µM) alone or Bai/Chr–BLG mixture the ANS solution (5 mM) was continuously added until the fluorescence intensity of the mixture remained constant. The fluorescence intensity of the sample was recorded in the wavelength range of 400–600 nm upon 380 nm excitation. The PSH values were calculated by the following equations [26]:(5) [ANS]bound=F/B (6) [ANS]free=[ANS]total−[ANS]bound (7) F/[ANS]free=−F/Kdapp−Fmax/Kdapp (8) PSH=Fmax/[BLG]Kdapp where [ANS]free and [ANS]bound are the concentration of free and bound ANS, respectively. Kdapp is the apparent dissociation constant of ANS, Fmax is the maximum fluorescence intensity at saturating ANS concentration and B is the proportionality coefficient.

β-lactoglobulin (BLG) [6] = molecular target: T1, β-lactoglobulin (BLG); assay: Foaming ability and foaming stability of BLG
Description: Foaming ability (FA) and foaming stability (FS) were measured as described by Wang et al. with some modifications. A certain amount of BLG solution (1.0 mg mL^−1) was added to a 100 mL cylinder, and Bai or Chr was added to form solutions with different ratios of BLG to Bai or Chr (40:1, 30:1, 20:1, 10:1). The initial height H0 of the foam was recorded. The foam was then sheared at 10,000 rpm in a high-speed dispersion machine for 1 min and the height of the foam was recorded as H1. The height of the foam was recorded as H2 30 min later. The FA (%) and FS (%) were calculated according to the following equations:(9) FA (%)=H1−H0/H0×100 (10) FS (%)=H2−H0/H1−H0×100

β-lactoglobulin (BLG) [7] = molecular target: T1, β-lactoglobulin (BLG); assay: Three-dimensional fluorescence spectra of BLG with Bai/Chr; details: c(BLG) = 20.0 µM, c(Bai/Chr) = 20.0 μM
Description: as §1

β-lactoglobulin (BLG) [8] = molecular target: T1, β-lactoglobulin (BLG); assay: Free sulfhydryl (SH) content of BLG (DTNB); details: Bai/Chr 0 to 20.0 µM, BLG 20.0 µM
Description: The content of free SH was determined by spectrophotometry according to the report by Takić et al. with minor modifications. Briefly, Bai/Chr concentrations were varied from 0 to 20.0 µM, and BLG was kept at 20.0 µM. Then the two solutions were incubated with 10.0 mM DTNB in 50 mM PBS (pH 6.8) for 30 min at room temperature. The absorbance of the sample at 412 nm was recorded and the molar extinction coefficient (14,360 M^−1 cm^−1) was obtained from the standard curve of L-cysteine, which was used to calculate the number of total sulfhydryl groups per gram of protein.

[9] = molar ratio of Bai/Chr to BLG 1:1
[10] = molar ratio of Bai/Chr to BLG 2:1
[11] = molar ratio of Bai/Chr to BLG 2:1, listed as Chr–BLG

Q: Which results are given for O=c1cc(-c2ccccc2)oc2cc(O)cc(O)c12 [Chr, chrysin]?
A: Ka (binding constant) (β-lactoglobulin (BLG) [1]; 298 K): 214000 L/mol; Kd (β-lactoglobulin (BLG) [1]; T = 298 K): 4.67 µM; Kd (β-lactoglobulin (BLG) [1]; T = 304 K): 4.81 µM; Kd (β-lactoglobulin (BLG) [1]; T = 310 K): 5.13 µM; n (number of binding sites) (β-lactoglobulin (BLG) [1]; T = 298 K): 1.45 ± 0.01; Ksv (Stern–Volmer quenching constant) (β-lactoglobulin (BLG) [1]; T = 298 K): 3.10 ± 0.04 ^d ×10^4 L mol^−1; n (number of binding sites) (β-lactoglobulin (BLG) [1]; T = 304 K): 1.01 ± 0.02; Ksv (Stern–Volmer quenching constant) (β-lactoglobulin (BLG) [1]; T = 304 K): 2.94 ± 0.06 ^e ×10^4 L mol^−1; n (number of binding sites) (β-lactoglobulin (BLG) [1]; T = 310 K): 1.29 ± 0.01; Ksv (Stern–Volmer quenching constant) (β-lactoglobulin (BLG) [1]; T = 310 K): 2.59 ± 0.04 ^f ×10^4 L mol^−1; BLG fluorescence quenching (β-lactoglobulin (BLG) [1]; after 10 times titration, 298 K, c(BLG) = 20 µM): 59.0%; n (number of binding sites) (β-lactoglobulin (BLG) [1]; general statement for the three temperatures): approximately 1; effect on emulsifying stability (ES) of BLG (β-lactoglobulin (BLG) [2]; BLG to Bai/Chr 40:1 to 10:1): did the opposite; effect on emulsifying ability (EA) of BLG (β-lactoglobulin (BLG) [2]; with the increase of Bai or Chr concentration (BLG to Bai/Chr 40:1 to 10:1)): slightly improved; ΔG° (free energy) (β-lactoglobulin (BLG) [3]; T = 298 K): -7.268 kcal/mol; ΔG° (free energy) (β-lactoglobulin (BLG) [3]; T = 304 K): -7.443 kcal/mol; ΔG° (free energy) (β-lactoglobulin (BLG) [3]; T = 310 K): -7.62 kcal/mol; ΔH° (enthalpy change) (β-lactoglobulin (BLG) [3]; from Ka at 298, 304 and 310 K): 1.48 kcal/mol; ΔS° (entropy change) (β-lactoglobulin (BLG) [3]; from Ka at 298, 304 and 310 K): 122.18 J mol^−1 K^−1; Random Coil content of BLG (β-lactoglobulin (BLG) [4]; [9]): 25.96 ± 0.34 ^bc %; α-Helix content of BLG (β-lactoglobulin (BLG) [4]; [9]): 14.30 ± 0.47 ^c %; β-Sheet content of BLG (β-lactoglobulin (BLG) [4]; [9]): 35.18 ± 0.12 ^c %; β-Turn content of BLG (β-lactoglobulin (BLG) [4]; [9]): 24.56 ± 0.48 ^a %; Random Coil content of BLG (β-lactoglobulin (BLG) [4]; [10]): 31.16 ± 0.10 ^a %; β-Turn content of BLG (β-lactoglobulin (BLG) [4]; [10]): 24.53 ± 0.93 ^a %; α-Helix content of BLG (β-lactoglobulin (BLG) [4]; [11]): 11.25% and 11.25 ± 0.58 ^d %; β-Sheet content of BLG (β-lactoglobulin (BLG) [4]; [11]): 33.06% and 33.06 ± 0.30 ^e %; F max (maximum fluorescence intensity at saturating ANS) (β-lactoglobulin (BLG) [5]; molar ratio 1:1): 151.76 ± 3.04 ^b; PSH (protein surface hydrophobicity) (β-lactoglobulin (BLG) [5]; molar ratio 1:1): 252.82 ± 5.07 ^c; Kdapp (apparent dissociation constant of ANS) (β-lactoglobulin (BLG) [5]; molar ratio 1:1, c(BLG) = 20.0 µM): 5.67 ± 0.31 µM; Reduction Rate of PSH (β-lactoglobulin (BLG) [5]; molar ratio 1:1, versus BLG alone): 23.25 ± 0.47 ^b %; F max (maximum fluorescence intensity at saturating ANS) (β-lactoglobulin (BLG) [5]; molar ratio 2:1): 110.17 ± 2.20 ^d; PSH (protein surface hydrophobicity) (β-lactoglobulin (BLG) [5]; molar ratio 2:1): 193.69 ± 3.87 ^e; Kdapp (apparent dissociation constant of ANS) (β-lactoglobulin (BLG) [5]; molar ratio 2:1, c(BLG) = 20.0 µM): 5.7 ± 0.1 µM; Reduction Rate of PSH (β-lactoglobulin (BLG) [5]; molar ratio 2:1, versus BLG alone): 41.20 ± 0.82 ^a %; increase of foaming stability (FS) of BLG (β-lactoglobulin (BLG) [6]; compared with BLG alone, molar ratio of BLG to Bai/Chr 10:1): 85.57%; increase of foaming ability (FA) of BLG (β-lactoglobulin (BLG) [6]; compared with FA of free BLG (25.2%), molar ratios of BLG to Bai/Chr changed from 40:1 to 10:1): 51.32%; fluorescence intensity of Peak 2 (3D fluorescence) (β-lactoglobulin (BLG) [7]; free BLG 430.6): 205.3; fluorescence intensity of Peak 1 (3D fluorescence) (β-lactoglobulin (BLG) [7]; free BLG 522.1): 378.5; effect on contents of free SH group of BLG (β-lactoglobulin (BLG) [8]): gradually weakened
